Test results reported in patent publication US20050020613A1, “Sustained release opioid formulations and method of use” (priority 2002, published 2005).
Read-outs that look alike come from different tables or passages of the source.

Assay type: in vivo
[1] = dose equianalgesic to a 15 mg dose of hydrocodone

## CN1CC[C@]23CCCC[C@H]2[C@H]1Cc1ccc(O)cc13 [Levorphanol]
[1]
  Equianalgesic Doses of Opioids: Calculated Dose: 1.8 mg

## Meperidine
[1]
  Equianalgesic Doses of Opioids: Calculated Dose: 135.0 mg

## COc1ccc2c3c1OC1C(=O)CC[C@H]4[C@@H](C2)N(C)CC[C@]314 (stereo partly shown) [Hydrocodone, 4,5-epoxy-3-methoxy-17-methylmorphinan-6-one]
[1]
  Equianalgesic Doses of Opioids: Calculated Dose: 15.0 mg

## CN1CC[C@]23c4c5ccc(O)c4O[C@H]2[C@@H](O)C=C[C@H]3[C@H]1C5 [Morphine]
In vivo
  Equianalgesic Doses of Opioids: Calculated Dose: 27.0 mg

## COc1ccc2c3c1O[C@H]1[C@@H](O)C=C[C@H]4[C@@H](C2)N(C)CC[C@@]341 [Codeine]
[1]
  Equianalgesic Doses of Opioids: Calculated Dose: 90.0 mg

## COc1ccc2c3c1OC1C(=O)CC[C@@]4(O)[C@@H](C2)N(C)CC[C@]314 (stereo partly shown) [Oxycodone, 4,5-epoxy-14-hydroxy-3-methoxy-17-methylmorphinan-6-one]
[1]
  Equianalgesic Doses of Opioids: Calculated Dose: 13.5 mg

## CCC(=O)C(CC(C)N(C)C)(c1ccccc1)c1ccccc1 (stereo not shown) [Methadone]
[1]
  Equianalgesic Doses of Opioids: Calculated Dose: 9.0 mg
